The values that follow come from patent US4988706A (priority 1988, dated 1991).

In assay [1] the target is muscarinic receptors (rat cerebral cortex). In words: Radio ligand binding: displacement of the muscarinic agonist 3H-Oxotremorine-M (3H-OXO-M). Conditions: displacement of 2nM 3H-OXO-M, rat cerebral cortex membranes, 2 mM magnesium chloride, 50 mM tris pH 7.7, 37° C., 30 min. Set-up: species or system Hooded Lister rats.
For assay [2] the target is unchanged. Type of assay: binding, Hooded Lister rats. The settings on record: displacement of 0.27 nM 3H-QNB, rat cerebral cortex membranes, 50 mM tris pH 7.7, 37° C., 30 min.

Counter-ions that a name gives are not always drawn. Like-named read-outs stand apart in the source and are kept apart here.

For the compound `Nc1noc(C23CCCN(CC2)C3)n1` (racemic) [Example E2, (±) 5-(3-Amino-1,2,4-oxadiazol-5-yl)-1-azabicyclo-[3.2.11octane], the IC50 is 11 nM in assay [1] and 2000 nM in assay [2].
As for `Nc1noc(C23CCN(CC2)C3)n1` [Example E4], the values for the IC50 in assay [1] and in assay [2] were 32.5 nM and 2250 nM, respectively.
Taken in the same sequence, the figures for `FCc1noc(C23CCN(CC2)C3)n1` [Example E5, 4-(3-Fluoromethyl-1,2,4-oxadiazol-5-yl)-1-azabicyclo[2.2.11heptane oxalate salt] were 140 nM and 19500 nM.
On to `FCc1noc(C23CCCN(CC2)C3)n1` (racemic) [Example E1, (±) 5-(3-Fluoromethyl-1,2,4-oxadiazol-5-yl)-1azabicyclo[3.2.l]octane oxalate salt], for which the results for the IC50 in assay [1] and in assay [2] were 6.9 nM and 900 nM, respectively.
